Assay results as given in the supplement of paper PMC10307832.

Tests used:
Assay in all cases: relative viability (nuclei count vs DMSO), 5 days (fraction); higher = more cells survive
Palbociclib + Foretinib = compound: CC(=O)c1c(C)c2cnc(Nc3ccc(N4CCNCC4)cn3)nc2n(C2CCCC2)c1=O [Palbociclib] + COc1cc2c(Oc3ccc(NC(=O)C4(C(=O)Nc5ccc(F)cc5)CC4)cc3F)ccnc2cc1OCCCN1CCOCC1 [Foretinib] (partner 0.25 µM)
Procedure, shortened: (§1)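 The day after seeding in 1536-well plates, lung cancer cell lines were treated by pin tool with a single drug, or with a fixed anchor-drug dose together with five library-drug doses (not always all listed) in √10 steps. After 5 days, a combined fix-and-stain solution (final 0.05% Triton X-100, 1% formaldehyde, 1 ug/ml Hoechst) was added. Nuclei counted on 4× images gave relative viability as treated counts over vehicle counts, reported as the median of duplicate plates.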

Palbociclib + Trametinib = compound: CC(=O)c1c(C)c2cnc(Nc3ccc(N4CCNCC4)cn3)nc2n(C2CCCC2)c1=O [Palbociclib] + CC(=O)Nc1cccc(-n2c(=O)n(C3CC3)c(=O)c3c(Nc4ccc(I)cc4F)n(C)c(=O)c(C)c32)c1 [Trametinib] (partner 0.02 µM)
Procedure, shortened: as §1

Palbociclib + Luminespib = compound: CC(=O)c1c(C)c2cnc(Nc3ccc(N4CCNCC4)cn3)nc2n(C2CCCC2)c1=O [Palbociclib] + CCNC(=O)c1noc(-c2cc(C(C)C)c(O)cc2O)c1-c1ccc(CN2CCOCC2)cc1 [Luminespib] (partner 0.01 µM)
Procedure, shortened: as §1

Palbociclib + OSI-027 = compound: CC(=O)c1c(C)c2cnc(Nc3ccc(N4CCNCC4)cn3)nc2n(C2CCCC2)c1=O [Palbociclib] + COc1cccc2cc(-c3nc([C@H]4CC[C@H](C(=O)O)CC4)n4ncnc(N)c34)[nH]c12 [OSI-027] (partner 0.5 µM)
Procedure, shortened: as §1

Cell Line | relative viability (Palbociclib + Foretinib; first compound 0.01 µM) | relative viability (Palbociclib + Foretinib; first compound 0.1 µM) | relative viability (Palbociclib + Foretinib; first compound 0.3162 µM) | relative viability (Palbociclib + Foretinib; first compound 1 µM) | relative viability (Palbociclib + Trametinib; first compound 0.01 µM) | relative viability (Palbociclib + Trametinib; first compound 0.1 µM) | relative viability (Palbociclib + Trametinib; first compound 0.3162 µM) | relative viability (Palbociclib + Trametinib; first compound 1 µM) | relative viability (Palbociclib + Luminespib; first compound 0.01 µM) | relative viability (Palbociclib + Luminespib; first compound 0.1 µM) | relative viability (Palbociclib + Luminespib; first compound 0.3162 µM) | relative viability (Palbociclib + Luminespib; first compound 1 µM) | relative viability (Palbociclib + OSI-027; first compound 0.01 µM) | relative viability (Palbociclib + OSI-027; first compound 0.1 µM) | relative viability (Palbociclib + OSI-027; first compound 0.3162 µM) | relative viability (Palbociclib + OSI-027; first compound 1 µM) | relative viability (Palbociclib + Foretinib; first compound 0.03162 µM) | relative viability (Palbociclib + Trametinib; first compound 0.03162 µM) | relative viability (Palbociclib + Luminespib; first compound 0.03162 µM) | relative viability (Palbociclib + OSI-027; first compound 0.03162 µM)
HCC-15 | 1 | 0.902 | 0.892 | 0.716 | 0.409 | 0.325 | 0.37 | 0.304 | 0.267 | 0.378 | 0.502 | 0.418 | 0.677 | 0.549 | 0.54 | 0.426 |  |  |  | 
NCI-H1755 | 0.928 | 0.819 | 0.801 | 0.578 | 0.804 | 0.688 | 0.719 | 0.597 | 0.266 | 0.451 | 0.479 | 0.284 | 0.677 | 0.555 | 0.633 | 0.391 | 0.893 | 0.746 | 0.297 | 0.496
COR-L23 | 0.95 | 0.911 | 0.729 | 0.58 | 0.666 | 0.362 | 0.434 | 0.209 | 0.647 | 0.511 | 0.429 | 0.434 | 0.763 | 0.491 | 0.521 | 0.39 | 0.745 | 0.521 | 0.515 | 0.6
NCI-H838 | 1.03 | 0.71 | 0.823 | 0.515 | 0.643 | 0.396 | 0.376 | 0.175 | 0.274 | 0.267 | 0.257 | 0.265 | 0.318 | 0.308 | 0.317 | 0.185 | 0.955 | 0.477 | 0.346 | 0.348
RERF-LC-KJ | 0.868 | 0.88 | 0.861 | 0.898 | 0.793 | 0.846 | 0.813 | 0.91 | 1.4 | 0.937 | 1.3 | 1.48 | 0.541 | 0.508 | 0.598 | 0.64 | 0.761 | 0.771 | 1.17 | 0.583
NCI-H1666 | 0.998 | 0.875 | 0.7 | 0.553 | 0.862 | 0.784 | 0.727 | 0.728 | 0.969 | 0.824 | 0.754 | 0.542 | 0.831 | 0.682 | 0.747 | 0.471 | 0.941 | 0.704 | 0.886 | 0.672
NCI-H358 | 0.718 | 0.523 | 0.412 | 0.226 | 0.124 | 0.106 | 0.12 | 0.106 | 0.325 | 0.176 | 0.308 | 0.134 | 0.807 | 0.501 | 0.455 | 0.138 | 0.545 | 0.133 |  | 0.62
COR-L 105 | 0.841 | 0.992 | 0.595 | 0.449 | 0.477 | 0.36 | 0.407 | 0.389 | 0.689 | 0.596 | 0.475 | 0.536 | 0.676 | 0.453 | 0.429 | 0.336 | 0.826 | 0.435 | 0.814 | 0.506
NCI-H1651 | 0.882 | 0.779 | 0.747 | 0.613 | 0.841 | 0.743 | 0.803 | 0.714 | 0.872 | 0.774 | 0.791 | 0.677 | 0.663 | 0.706 | 0.663 | 0.334 | 0.819 | 0.798 | 0.814 | 0.639
NCI-H441 | 0.75 | 0.571 | 0.701 | 0.373 | 0.483 | 0.23 | 0.228 | 0.155 | 0.317 | 0.38 | 0.26 | 0.229 | 0.56 | 0.407 | 0.405 | 0.213 | 0.965 | 0.409 | 0.371 | 0.394
H3255 | 0.879 | 0.693 | 0.641 | 0.57 | 0.606 | 0.539 | 0.48 | 0.412 | 0.925 | 0.65 | 0.587 | 0.464 | 0.597 | 0.405 | 0.469 | 0.382 | 0.898 | 0.588 | 0.91 | 0.49
HARA | 0.828 | 0.763 | 0.534 | 0.332 | 0.654 | 0.763 | 0.627 | 0.338 | 0.65 | 0.447 | 0.514 | 0.28 | 0.509 | 0.272 | 0.303 | 0.122 |  | 0.545 |  | 
NCI-H647 | 1.21 | 1.13 | 1.07 | 0.964 | 0.502 | 0.428 | 0.346 | 0.272 | 0.0934 | 0.137 | 0.209 | 0.253 | 0.788 | 0.652 | 0.636 | 0.362 | 1.17 | 0.305 | 0.13 | 0.496
NCI-H2228 | 0.773 | 0.867 | 0.787 | 0.781 | 0.606 | 0.494 | 0.522 | 0.483 | 0.173 | 0.149 | 0.126 | 0.098 | 0.529 | 0.389 | 0.492 | 0.48 | 0.782 | 0.373 | 0.182 | 0.373
LOU-NH91 | 0.957 | 0.678 | 0.646 | 0.533 | 0.798 | 0.581 | 0.612 | 0.62 | 0.341 | 0.271 | 0.348 | 0.324 | 0.706 | 0.46 | 0.505 | 0.44 | 0.86 | 0.662 | 0.322 | 0.587
A-427 | 0.944 | 0.993 | 0.729 | 0.607 | 0.846 | 0.628 | 0.613 | 0.587 | 0.991 | 0.691 | 0.74 | 0.501 | 0.467 | 0.282 | 0.33 | 0.308 | 1.01 | 0.703 | 0.809 | 0.271
NCI-H1993 | 0.815 | 0.671 | 0.627 | 0.52 | 0.564 | 0.418 | 0.332 | 0.514 | 0.8 | 0.762 | 0.671 | 0.888 | 0.533 | 0.513 | 0.524 | 0.509 | 0.633 | 0.612 | 0.781 | 0.505
NCI-H650 | 1.05 | 0.839 | 0.824 | 0.639 | 1.02 | 0.771 | 0.915 | 0.792 | 0.921 | 0.629 | 0.793 | 0.609 | 0.53 | 0.393 | 0.376 | 0.331 | 0.862 |  | 0.613 | 0.309
LXF-289 | 0.977 | 0.955 | 0.896 | 0.828 | 0.662 | 0.632 | 0.619 | 0.605 | 0.627 | 0.604 | 0.709 | 0.554 | 0.815 | 0.697 | 0.734 | 0.561 | 0.926 | 0.633 | 0.71 | 0.411
LK-2 | 1.12 | 1.18 | 1.27 | 1.05 | 0.788 | 0.752 | 0.633 | 0.708 | 0.208 | 0.166 | 0.191 | 0.158 | 0.208 | 0.182 | 0.212 | 0.162 |  | 0.676 |  | 
BEN | 0.729 | 0.607 | 0.556 | 0.376 | 1.05 | 0.553 | 0.873 | 0.598 | 0.619 | 0.269 | 0.205 | 0.194 | 0.298 | 0.255 | 0.252 | 0.286 | 0.422 | 0.949 | 0.225 | 0.274
NCI-H2087 | 0.951 | 0.838 | 0.631 | 0.47 | 0.236 | 0.161 | 0.15 | 0.187 | 0.175 | 0.137 | 0.235 | 0.203 | 0.433 | 0.361 | 0.278 | 0.25 |  | 0.191 |  | 
NCI-H727 | 0.879 | 0.636 | 0.596 | 0.5 | 0.366 | 0.397 | 0.387 | 0.403 | 0.309 | 0.285 | 0.352 | 0.405 | 0.468 | 0.367 | 0.494 | 0.438 | 0.727 | 0.336 | 0.293 | 0.477
LCLC-97TM1 | 0.861 | 0.854 | 0.67 | 0.514 | 0.209 | 0.208 | 0.182 | 0.184 | 0.666 | 0.684 | 0.486 | 0.281 | 0.586 | 0.349 | 0.219 | 0.221 | 0.883 |  | 0.702 | 0.353
PC-14 | 0.944 | 0.819 | 0.868 | 0.733 | 0.742 | 0.512 | 0.466 | 0.273 | 0.141 | 0.151 | 0.127 | 0.176 | 0.964 | 0.572 | 0.603 | 0.362 | 0.865 | 0.528 |  | 0.515
NCI-H520 | 0.837 | 0.522 | 0.551 | 0.373 | 0.84 | 0.561 | 0.541 | 0.245 | 0.203 | 0.225 | 0.216 | 0.222 | 0.21 | 0.203 | 0.236 | 0.212 | 0.563 | 0.574 | 0.214 | 0.228
LC-2-ad | 0.909 | 0.687 | 0.687 | 0.481 | 0.966 | 0.889 | 0.804 | 0.666 | 0.944 | 0.856 | 0.8 | 0.535 | 0.746 | 0.604 | 0.625 | 0.474 |  | 0.884 |  | 
